Source: ChEMBL document CHEMBL1201862, “PubChem BioAssay data set” (2004)
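Compound exposure: 48 hours, 5 concentrations, 96-well plates. Here, GI50 denotes the concentration required for 50% inhibition of growth.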 Activity calls are given as the source filed them. Cut-off read from the data, not from the text of the source: active = GI50 up to about 1.1 µM and inactive = higher.

Key:
Test in all cases: NCI anticancer screen, dose series, 48 h
KM-20L2 = system: KM-20L2
DLD-1 = system: DLD-1
DMS-114 = system: DMS-114
HOP-18 = system: HOP-18
XF498 = system: XF498
SNB-78 = system: SNB-78
RXF 631 = system: RXF 631
LXFL 529 = system: LXFL 529
BT-549 = system: BT-549

Structure (SMILES)	GI50 (KM-20L2)	GI50 (DLD-1)	GI50 (DMS-114)	GI50 (HOP-18)	GI50 (XF498)	GI50 (SNB-78)	GI50 (RXF 631)	GI50 (LXFL 529)	GI50 (BT-549)
Cn1c2c(c3ccccc31)CCN(CCCCN1CCN(c3ccccc3)CC1)C2=O	4.29 µM (inactive)	19.3 µM (inactive)	22.1 µM (inactive)	> 31.6 µM (inactive)	14.1 µM (inactive)	> 100 µM (inactive)	9.66 µM (inactive)	33.9 µM (inactive)	6.58 µM (inactive)
Cc1cc2oc(-c3ccccc3)c(C)c(=O)c2c2c1OC(C)(C)S2	55.5 µM (inactive)	99.1 µM (inactive)	83.9 µM (inactive)	> 100 µM (inactive)	> 100 µM (inactive)	–	> 100 µM (inactive)	> 100 µM (inactive)	–
CCCCC(C)/C=C/C(O)=C1\C(=O)O/C(=C\C(=O)O)C1=O (stereo not drawn)	> 100 µM (inactive)	–	> 100 µM (inactive)	> 100 µM (inactive)	> 100 µM (inactive)	> 100 µM (inactive)	> 100 µM (inactive)	> 100 µM (inactive)	–
COc1ccc2[nH]c3c(C)c4cc[n+](COC(=O)c5ccccc5)cc4c(C)c3c2c1	0.282 µM (active)	–	0.279 µM (active)	0.0198 µM (active)	1.48 µM (inactive)	0.897 µM (active)	0.165 µM (active)	0.148 µM (active)	–
O=C(O)COc1ccc(C(=O)/C(SS/C(C(=O)c2ccc(OCC(=O)O)c(Cl)c2Cl)=C2\C=C(c3ccccc3Cl)SS2)=C2/C=C(c3ccccc3Cl)SS2)c(Cl)c1Cl	49.8 µM (inactive)	25 µM (inactive)	9.73 µM (inactive)	24.1 µM (inactive)	13.6 µM (inactive)	16.9 µM (inactive)	25.5 µM (inactive)	5.5 µM (inactive)	–
